Results: US8822455B2, “Fused aminodihydrothiazine derivatives” (Eisai R&D Management Co., Ltd., priority 2011, dated 2014)

Each compound was assayed on Aβ42 (assay: In vitro cellular assay (Aβ42): quantification of Aβ peptide in culture of neurons from rat fetus brain (ELISA)). Conditions: Primary cortical neuron, 72 h, rat primary cortical neurons (embryonic day 18 Wistar), 3 days after addition of compound, read-out: Cell IC50.
Format: cell-based
Protocol: In vitro Cellular Assay (Aβ42):
Quantification of AβPeptide in Culture of Neurons from Rat Fetus Brain
(1) Rat Primary Neuronal Culture
Primary neuronal cultures were prepared from the cerebral cortex of embryonic day 18 Wistar rats (Charles River, UK). Specifically, the embryos were aseptically removed from pregnant rats under ether anesthesia. The brain was isolated from the embryo and immersed in HBSS (Sigma Aldrich #H9269) containing 10 mM HEPES (Gibco #15630-056). The cerebral cortex was collected from the isolated brain under a stereoscopic microscope. The cerebral cortex fragments collected were enzymatically treated in an enzyme solution containing 0.05% trypsin-EDTA solution (GIBCO, #25300) at 37° C. for 20 minutes to disperse the cells. The cells were then washed twice and then gently resuspended in Neurobasal medium (Gibco #21103) supplemented with 2% B27 supplement (GIBCO #17504-044), 0.5 mM L-glutamine (GIBCO #25030), 1×N2 (GIBCO #17502-048), 100 ug/ml Pen/Strep (GIBCO 15140-122) and 5% heat inactivated FCS (PAA #A15-701). The cell dispersion was filtered through a 40-μm nylon mesh (BD Falcon #352340) to remove the remaining cell mass, and thus a neuronal cell suspension was obtained. The neuronal cell suspension was diluted with the medium above and then plated in a volume of 100 μL/well at an initial cell density of 3.25×10^5 cells/ml in poly-D-lysine coated 96-well culture plate (Greiner #655940). The plated cells were cultured in the culture plate at 37° C. in 5% CO2-95% air for 24 hrs. The total amount of the medium was replaced with ‘assay Neurobasal medium’ (as above excluding heat inactivated FCS), and then the cells were cultured for a further five days.
The drug was added to the culture plate on Day 6 of culture as follows. 8 point compound serial dilutions were generated in DMSO at a concentration of ×1000 that of the final assay concentration (FAC). Compound solutions were then prepared by adding 999 ul of ‘Assay Neurobasal media’ (as described in above section) to 1 ul of DMSO compound stock. The total amount of the medium was removed from each of the cell plate wells, and 200 μL/well of compound solution was added. The final DMSO concentration was 0.1%.
The cells were cultured for either 1 or 3 days after addition of the compound for ABx-40 and ABx-42 assays respectively. 150 μl of sample medium was collected and used as the ELISA sample.
Human/Rat β Amyloid (42) ELISA Kit Wako (#290-62601) and Human/Rat β Amyloid (40) ELISA Kit Wako (#294-62501) from Wako Pure Chemical Industries, Ltd. were used for Aβ ELISA Aβ ELISA was carried out according to the protocols recommended by the manufacturers, described in the documents accompanying the kits. The results were shown as percentage of the control groups and IC50 values for each compound were determined using four parameter logistic fit model using the XLFIT5 software package (IDBS).
`C[C@H]1OC[C@]2(c3cc(-c4cccc(=O)[nH]4)ccc3F)N=C(N)SC[C@H]12` [Example 25, 6-(3-((4aS,5R,7aS)-2-amino-5-methyl-4a,5,7,7a-tetrahydro-4H-furo[3,4-d][1,3]thiazin-7a-yl)-4-fluorophenyl)pyridin-2(1H)-one] was tested, and the IC50 was 342 nM.
In the case of `C[C@H]1OC[C@]2(c3cc(-c4cncc(OC(F)F)c4)ccc3F)N=C(N)SC[C@H]12` [Example 26], the IC50 is reported as 64 nM.
For `NC1=N[C@@]2(c3cc(-c4cncnc4)c(F)cc3F)CO[C@H](CF)[C@H]2CS1` [Example 27, (4aS,5S,7aS)-7a-(2,4-Difluoro-5-(pyrimidin-5-yl)phenyl)-5-(fluoromethyl)-4a,5,7,7a-tetrahydro-4H-furo[3,4-d][1,3]thiazin-2-amine], the IC50 was 59 nM.
Work on `NC1=N[C@@]2(c3cc(-c4cccnc4F)c(F)cc3F)CO[C@H](CF)[C@H]2CS1` [Example 28] yielded an IC50 of 46 nM.
Compound `COc1cncc(-c2cc([C@]34CO[C@H](CF)[C@H]3CSC(N)=N4)c(F)cc2F)c1` [Example 29, (4aS,5S,7aS)-7a-(2,4-difluoro-5-(5-methoxypyridin-3-yl)phenyl)-5-(fluoromethyl)-4a,5,7,7a-tetrahydro-4H-furo[3,4-d][1,3]thiazin-2-amine] has an IC50 of 15 nM.
In the case of `NC1=N[C@@]2(c3cc(-c4ccc(F)nc4)c(F)cc3F)CO[C@H](CF)[C@H]2CS1` [Example 30, (4aS,5S,7aS)-7a-(2,4-difluoro-5-(6-fluoropyridin-3-yl)phenyl)-5-(fluoromethyl)-4a,5,7,7a-tetrahydro-4H-furo[3,4-d][1,3]thiazin-2-amine], the IC50 is reported as 223 nM.
